From patent US11071744B2, “Prodrug salts” (AEROMICS, INC., priority 2013, dated 2021)
In brackets after ≈: the same amount, converted by molar mass. Where a name gives a salt, the structure may show the parent alone. Read-outs that look alike come from different tables or passages of the source.

What was measured:
[1] = tested on: mouse water toxicity model; experiment: Mouse water toxicity model, survival curves; conditions: 0.76 mg/kg vs placebo
Method: Mouse Water Toxicity Model—Survival Curves: The in vivo efficacies of the compounds are tested using the mouse water toxicity model, where a mouse is injected with water at 20% of its body weight. […] The resulting euvolemic hyponatremia rapidly leads to CE, making this a practical model to test an inhibitor of the CNS aquaporin, AQP4b.
The ability of mice to survive H2O toxicity is determined in three experiments using 10-12 mice each (16-19 weak old male/female). Deionized water is prepared for injection with either 0.39 mg/kg phenylbenzamide (placebo) or 0.76 mg/kg with test compound.

[2] = tested on: mouse water toxicity model; experiment: Mouse water toxicity model, brain volume by MRI
Method: Mouse Water Toxicity Model—Brain Volume by Magnetic Resonance Imaging (MRI): MRI is used to measure changes in brain volume in response to water shock, using the water toxicity model. As described for the survival and brain water content studies above, mice are injected, IP, with a water bolus alone or water bolus and test compound at 0.76 mg/kg, and changes in brain volume as detected by MRI are monitored. […] High resolution T2-weighted sagittal scans (resolution=0.1 mm×0.1 mm×0.7 mm) of the mouse head are obtained prior to water injection, 5.67 min post water injection, and then every 5.2 minutes until the animal expires from the water loading. Each scan contains twenty-five 0.7 mm contiguous imaging slices of which 14-15 slices contain a portion of the brain. The cross sectional area of the brain in each imaging slice is measured by manual region-of-interest selection using ImageJ. Brain volumes are then calculated for each scan by summing the individual cross sectional brain areas and multiplying by the slice thickness (0.7 mm).
The brain volume by magnetic resonance imaging experiment is also conducted with phenylbenzamide (0.39 mg/kg) and Compound 4 (0.83 mg/kg).

[3] = physchem; conditions: for final pH of solutions: in water
Method: (§1) 15 g is dissolved in 1.2 L of water with 120 mM of sodium hydroxide and extracted with 500 ml ethyl acetate to remove phenol and non acid impurities. The aqueous layer is acidified with concentrated HCl to pH 1.2 and extracted with ethyl acetate 1 L followed by 600 ml. […] Ethyl acetate is removed by adding 100 ml of methanol and evaporating. […] Sample kept at RT.

[4] = Method: as §1
[5] = molecular target: T1, AQP4 (Homo sapiens, UniProt P55087); experiment: AQP Inhibition Cell-Based Assay (Table 1)
T1 construct: expressed in transfected cells; host or cells: CHO

[6] = tested on: mouse middle cerebral artery occlusion (MCAo) model; experiment: MCAo stroke model, survival; format: in vivo; conditions: at 24 h; 2 mg/kg i.p. loading dose plus 1 mg/ml at 8 μl/h pump, vs saline
Method: (§6) To mimic this injury in mice, an intraluminal monofilament model of middle cerebral artery occlusion (MCAo) is used. Occlusion is achieved by inserting a surgical filament into the external carotid artery (ECA) and threading it forward into the internal carotid artery (ICA) until the tip blocks the origin of the MCA. […] This technique is used to study a temporary occlusion in which the MCA is blocked for one hour. The filament is then removed allowing reperfusion to occur for 24 hours before the animals brain is imaged using T2-weighted scans in a 9.4T Bruker MRI scanner at the Case Center for Imaging Research (FIG. 10).
Survival—Mice are treated with Compound 5 using a 2 mg/kg i.p. loading dose and 1 mg/ml at 8 μl/h maintenance dose (delivered by an i.p. osmotic pump) of Compound 5, or given saline (controls; n=17) using an identical approach.

[7] = tested on: mouse middle cerebral artery occlusion (MCAo) model; experiment: MCAo stroke model, cerebral edema (hemispheric brain volume by MRI)
Method: as §6
Cerebral Edema—Mice are given saline or treated with Compound 5 by multi-dosing at 5 mg/kg i.p. every three hours (n=8 per treatment). […] Ipsilateral and contralateral hemispheric volume is measured from the T2-weighted MR images of mice 24 hours post-icus. Relative change in hemispheric volume is calculated as a percent of the difference between ipsilateral brain volume (Vi) and contralateral brain volume (Vc) relative to the contralateral brain volume (Percent Change in Hemispheric Brain Volume=((Vi−Vc)/Vc)×100%.

[8] = tested on: mouse middle cerebral artery occlusion (MCAo) model; experiment: MCAo stroke model, neurological outcome; format: in vivo
Method: as §6
Neurological Outcome—In the same experiment as above, animals are scored for neurological outcome on a simple 5 point scale described in Manley, G. T. et al., Aquaporin-4 Deletion in Mice Reduces Brain Edema After Acute Water Intoxication and Ischemic Stroke, Nature Medicine, 6, 159-163 (2000).

[9] = molecular target: purified AQP4b (Homo sapiens, UniProt P55087); experiment: Hummel-Dryer style binding assay with [3H]-Compound 4
Method: To support the mechanism of action by which phenylbenzamides directly block AQP4, we perform in vitro binding studies using purified AQP4b and Compound 4 radiolabeled with ^3H. Using a Hummel-Dryer style assay, a gel filtration column is equilibratrated with buffer containing detergent, to maintain solubility of AQP4b, and 1 μM [^3H]-Compound 4. AQP4b is diluted to 250 μM in this column buffer and incubated at RT for 30 min. The sample is then applied to the column, fractions collected and the presence of [^3H]-Compound 4 detected by liquid scintillation counting. […] The rise in [^3H]-Compound 4 from a baseline value of 1 μM represents binding to each of these proteins.

[10] = molecular target: T2, AQP1 (Homo sapiens, UniProt P29972); experiment: Aquaporin-Mediated Cell Volume Change Assay, CHO cells expressing AQP1; format: cell-based; conditions: 10 μM
T2 construct: expressed in transfected cells
T2 sequence (P29972 1-269): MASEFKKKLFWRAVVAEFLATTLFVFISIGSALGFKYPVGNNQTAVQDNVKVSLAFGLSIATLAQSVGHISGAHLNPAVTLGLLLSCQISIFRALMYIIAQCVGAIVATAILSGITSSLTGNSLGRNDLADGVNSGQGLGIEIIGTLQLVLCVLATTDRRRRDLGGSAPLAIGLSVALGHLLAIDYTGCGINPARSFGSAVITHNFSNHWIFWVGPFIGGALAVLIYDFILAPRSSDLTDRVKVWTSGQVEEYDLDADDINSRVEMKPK
Method: (§2) Structure activity relationships (SARs) are determined by assaying analogues of selected hits to guide chemistry for the preparation of new molecules to be tested for improved potency. For this iterative process we use a quantitative kinetic assay—the Aquaporin-Mediated Cell Volume Change Assa—in a 96-well multiplate reader. It detects changes in light scattering by a monolayer of CHO cells expressing the desired AQP as they shrink when exposed to hypertonic solution (300 mOsm→530 mOsm). FIG. 1 depicts the aquaporin-mediated cell volume change assay with AQP4 expressing cells (FIG. 1A) and AQP2 expressing cells (FIG. 1B). The cells expressing aquaporins shrink more rapidly than control cells, due to enhanced water flow, which shrinkage can be inhibited by a compound that inhibits the aquaporin.
(§3) The specificity of the compounds is tested against the most closely related of the 13 known aquaporins: AQP1, AQP2, AQP5 and both splice variants of AQP4 (A and B). A stable CHO cell line is created for each of the above aquaporins and the inhibition of water permeability using the Aquaporin-Mediated Cell Volume Change Assay with 10 μM Compound 3 is tested.

[11] = molecular target: T3, AQP2 (Homo sapiens, UniProt P41181); experiment: Aquaporin-Mediated Cell Volume Change Assay, CHO-AQP2 cells; format: cell-based; conditions: 10 μM
T3 construct: expressed in transfected cells
T3 sequence (P41181 1-271): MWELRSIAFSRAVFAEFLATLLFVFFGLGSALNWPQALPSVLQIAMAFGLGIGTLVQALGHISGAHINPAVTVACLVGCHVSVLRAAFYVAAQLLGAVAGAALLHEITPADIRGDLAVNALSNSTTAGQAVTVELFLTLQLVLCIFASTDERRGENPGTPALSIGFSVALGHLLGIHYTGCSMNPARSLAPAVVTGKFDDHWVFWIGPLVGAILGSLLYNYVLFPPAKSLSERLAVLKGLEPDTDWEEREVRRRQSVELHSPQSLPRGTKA
Method: as §2
(§4) In FIG. 1, aquaporin-expressing cells are shown in the presence of DMSO (triangles) or in the presence of the test compound (here, Compound 3) at 10 μM (squares), along with CHO-CD81 expressing control cells in the presence of DMSO (diamonds). Each curve represents an average of 16 wells in the 96-well plate.
(§5) In FIG. 1A, when the AQP4b cells treated with DMSO are exposed to hypertonic shock, the cells show rapid shrinking, giving a rise in light scattering (increasing relative change in absorbance, Abs/Abs0) followed by a decay as cells detach from the plate. […]

[12] = tested on: AQP4b; experiment: Aquaporin-Mediated Cell Volume Change Assay, CHO-AQP4b cells; format: cell-based; conditions: 10 μM, AQP4 (both splice variants)
Method: as §2, §4, §5

[13] = molecular target: T4, AQP4b (Homo sapiens, UniProt P55087); experiment: as above; format: cell-based; conditions: read-out: inhibition of rate of shrinking, 10 μM, CHO-AQP4b cells, hypertonic shock
T4 construct: expressed in transfected cells
Method: as §2, §4, §5

[14] = molecular target: T5, AQP5 (Homo sapiens, UniProt P55064); experiment: Aquaporin-Mediated Cell Volume Change Assay, CHO cells expressing AQP5; format: cell-based; conditions: 10 μM
T5 construct: expressed in transfected cells
Method: as §2, §3

[15] = mice injected IP
Method: Measurements are taken at 15 minutes and 24 hours after a 10 mg/kg i.p. loading dose and 1 mg/ml at 8 μl/h maintenance dose (delivered by an Alzet i.p. osmotic pump, Durect Corp., Cupertino, Calif.) of 2-{[3,5-bis(trifluoromethyl)phenyl]carbamoyl}-4-chlorophenyl phosphate bis ethanolamine salt (n=5 mice/time point, mean±SEM) (FIG. 9). […] Samples are analyzed by tandem LC-MS/MS using C18 reversed-phase chromatography and mass analysis with a triple-quadrapole mass spectrometer.

[16] = Bioconversion of prodrug salt to Compound 1 in mouse plasma in vitro; format: in vitro ADME; conditions: 20° C.
[17] = solid state, freeze dried salts

T1 sequence (P55087 23-323, species assumed): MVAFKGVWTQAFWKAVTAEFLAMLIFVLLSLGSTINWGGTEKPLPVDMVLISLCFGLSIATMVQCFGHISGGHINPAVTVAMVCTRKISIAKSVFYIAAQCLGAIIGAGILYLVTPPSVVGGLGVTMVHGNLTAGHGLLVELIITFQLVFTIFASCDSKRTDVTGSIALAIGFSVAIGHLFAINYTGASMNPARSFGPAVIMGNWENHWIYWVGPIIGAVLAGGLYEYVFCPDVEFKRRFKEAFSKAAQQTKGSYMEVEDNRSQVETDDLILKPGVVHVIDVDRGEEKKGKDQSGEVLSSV
T5 sequence (P55064 whole entry, species assumed): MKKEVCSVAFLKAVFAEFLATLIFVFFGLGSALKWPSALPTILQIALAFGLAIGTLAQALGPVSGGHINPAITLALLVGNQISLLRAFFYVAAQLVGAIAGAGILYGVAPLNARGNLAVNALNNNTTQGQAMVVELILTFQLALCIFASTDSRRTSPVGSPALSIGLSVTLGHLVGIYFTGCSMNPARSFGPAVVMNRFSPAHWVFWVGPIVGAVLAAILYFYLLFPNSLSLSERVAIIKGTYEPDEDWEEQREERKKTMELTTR
T4 sequence (P55087 23-323 limits assumed): as the sequence (P55087 23-323, species assumed) above
Chain of purified AQP4b (P55087 23-323): as the sequence (P55087 23-323, species assumed) above

O=C(Nc1cc(C(F)(F)F)cc(C(F)(F)F)c1)c1cc(Cl)ccc1O [Compound 1, N-(3,5-bis(trifluoromethyl)phenyl)-5-chloro-2-hydroxybenzamide]
improvement of percent survival [1]: 3.2 fold | improvement of time to 50% survival [1]: roughly 52 min | extent of CE during the period of observation ([2]; 0.76 mg/kg): reduced | reduction of rate of CE development ([2]; 0.76 mg/kg, from 0.081 to 0.032 min^−1): 2.5 fold | plasma levels ([2]; mouse water toxicity model, 0.76 mg/kg IP, LC-MS/MS): 0.03 to 0.06 µg | solubility in water ([3]; water): 3.8 µg/mL (≈ 0.0099 mM)

O=C(Nc1cc(C(F)(F)F)cc(C(F)(F)F)c1)c1cc(Cl)ccc1OP(=O)(O)O
stability at RT [4]: stable at RT for a week or more | solubility ([3]; pH 7, aqueous buffer): 5000 µg/mL (≈ 10.8 mM)

O=C(Nc1ccccc1)c1ccccc1 [Phenylbenzamide, reference compound]
AQP Inhibition Cell-Based Assay (%) [5]: 4.5%

O=C(Nc1cc(C(F)(F)F)cc(C(F)(F)F)c1)c1cc(Cl)ccc1OP(=O)([O-])[O-].[Na+].[Na+] [Compound 5]
improvement in overall survival [6]: 29.4% | relative change in ipsilateral hemispheric brain volume ([7]; 24 hours after MCAo, 5 mg/kg i.p. every three hours, ±SEM, control 13.4%): 4.2±1.7% | reduction in brain swelling after MCAo ([7]; vs saline control): 3.2 fold | hydrolysis in the solid state [4, 17]: about 1 % per day | longer term hydrolysis in solution ([4]; solution, RT, longer term): about 1 % per day | average neurological score ([8]; 5 point scale, control 2.77±0.66): 0.88±0.31 | progression of neurological state ([8]; mouse, in vivo): did not progress into a state of severe paralysis or death | solubility in water [3]: 1000 µg/mL | final pH of solutions [3]: ~9.5 | solubility ([3]; water): ~10000 µg/mL

O=C(Nc1cc(C(F)(F)F)cc(C(F)(F)F)c1)c1cc(C(F)(F)F)ccc1O [Compound 4, N-(3,5-bis(trifluoromethyl)phenyl)-2-hydroxy-5-(trifluoromethyl)benzamide]
AQP Inhibition Cell-Based Assay (%) [5]: 38.9% | binding to solubilized AQP4b [9]: relatively weak binding

O=C(Nc1cc(C(F)(F)F)cc(C(F)(F)F)c1)c1cc(Cl)ccc1OP(=O)([O-])O.[Na+] [mono sodium salt]
hydrolysis in the solid state [4, 17]: about 1 % per day | longer term hydrolysis in solution ([4]; solution, RT, longer term): about 1 % per day | final pH of solutions [3]: ~8.5 | solubility ([3]; water): ~5000 µg/mL

O=C(Nc1cc(Cl)cc(Cl)c1)c1cc(Cl)ccc1O [Compound 3, 5-chloro-N-(3,5-dichlorophenyl)-2-hydroxybenzamide]
inhibition of water permeability [10]: poorly inhibits | inhibition of water permeability [11]: inhibits | inhibition of water permeability [12]: inhibits | inhibition at 10 µM [13]: 55% | inhibition of water permeability [14]: poorly inhibits

O=C(Nc1cc(C(F)(F)F)cc(C(F)(F)F)c1)c1cc(Cl)ccc1OP(=O)(O)O [bis ethanolamine salt]
bioavailability and conversion to Compound 1 [15]: good bioavailability and near-complete conversion | prodrug salt in plasma samples [15]: undetectable | hydrolysis in the solid state [4]: about 1 % per day | longer term hydrolysis in solution [4]: about 1 % per day | time to render prodrug undetectable [16]: Less than 5 minutes | solubility ([3]; water): ~10000 µg/mL

NCCO.O=C(Nc1cc(C(F)(F)F)cc(C(F)(F)F)c1)c1cc(Cl)ccc1OP(=O)(O)O [mono ethanolamine salt]
hydrolysis ([4]; after 5 days at RT): about 1% | solubility ([3]; water): ~5000 µg/mL
